Results from ChEMBL document CHEMBL1817599, “Inhibition of LuxS by S-ribosylhomocysteine analogues containing a [4-aza]ribose ring” (Bioorg Med Chem, 2011).
pIC50: −log10 of the molar value. The source made the active and inactive calls. No cut-off for these calls is given here.

Columns and labels:
[1] = biological target: T1, S-ribosylhomocysteine lyase (Bacillus subtilis (strain 168)) (UniProt O34667); test: Inhibition of Bacillus subtilis LuxS preincubated for 15 mins by UV-vis spectrophotometric analysis
T1 sequence (whole entry): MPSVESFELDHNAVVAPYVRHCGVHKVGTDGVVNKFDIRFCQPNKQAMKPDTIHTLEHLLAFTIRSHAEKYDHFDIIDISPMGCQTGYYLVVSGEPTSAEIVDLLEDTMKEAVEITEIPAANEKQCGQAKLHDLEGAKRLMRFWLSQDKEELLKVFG

[2] = biological target: T1, S-ribosylhomocysteine lyase (Bacillus subtilis (strain 168)); test: Competitive inhibition of Bacillus subtilis LuxS preincubated for 15 mins by UV-vis spectrophotometric analysis
[3] = biological target: T1, S-ribosylhomocysteine lyase (Bacillus subtilis (strain 168)); test: Inhibition of Bacillus subtilis LuxS at 20 to 50 uM by UV-vis spectrophotometric analysis; settings: TDE = time-dependent effect
[4] = biological target: T2, S-ribosylhomocysteine lyase (Bacillus subtilis (strain 168), UniProt O34667); test: Competitive inhibition of Bacillus subtilis LuxS preincubated for 30 mins by UV-vis spectrophotometric analysis
T2 sequence (O34667 whole entry): T1 sequence (whole entry)

[5] = biological target: T1, S-ribosylhomocysteine lyase (Bacillus subtilis (strain 168)); test: as above

Row | Compound | inhibition [1] | also measured
1 | N[C@@H](CCSC[C@@H]1[C@@H](O)[C@@H](O)C(=O)N1Cc1ccccc1)C(=O)O | inactive | –
2 | N[C@@H](CCSC[C@H]1NC[C@H](O)[C@@H]1O)C(=O)O | – | inhibition [2]: Dose-dependent effect
3 | N[C@@H](CCSC[C@H]1NC(O)[C@H](O)[C@@H]1O)C(=O)O (mixture of isomers) | – | inhibition [3]: tde; pIC50 [4]: 4.22; Ki [5]: 3.5 µM
4 | CC1=N[C@H](CSCCC(N)C(=O)O)[C@@H](O)[C@H]1O (mixture of isomers) | inactive | –
5 | CCCSC[C@@H]1CCC(O)N1 (mixture of isomers) | inactive | –

Second part, led by results:

Row | inhibition [1] | Compound | also measured
6 | inactive | NC(CCSC[C@@H]1CCC(=O)N1)C(=O)O (mixture of isomers) | –
7 | inactive | N[C@@H](CCSC[C@@H]1CCC(O)N1)C(=O)O (mixture of isomers) | –
